Data set [1] can be described thus: log P by HPLC on reversed-phase column (C 18), EEC Directive 79/831 Annex V.A8. It is filed as physicochemical. The settings on record: 40° C., 0.1% aqueous formic acid and acetonitrile. The method, then:
In table 1, the log P values were determined in accordance with EEC Directive 79/831 Annex V.A8 by HPLC (High Performance Liquid Chromatography) on a reversed-phase column (C 18), using the method described below: Temperature: 40° C.; Mobile phases: 0.1% aqueous formic acid and acetonitrile; linear gradient from 10% acetonitrile to 90% acetonitrile. Calibration was carried out using unbranched alkan-2-ones (comprising 3 to 16 carbon atoms) with known log P values (determination of the log P values by the retention times using linear interpolation between two successive alkanones). lambda-max-values were determined using UV-spectra from 200 nm to 400 nm and the peak values of the chromatographic signals.

The subject of the next data set is Pyrenophora teres. In words: In vivo preventive test on Pyrenophora teres (barley). Particulars: 500 ppm of active ingredient, evaluated 7-9 days after inoculation. As for the experimental part: In Vivo Preventive Test on Pyrenophora teres (Barley) • Solvent: 49 parts by weight of N,N-dimethylformamide • Emulsifier: 1 part by weight of alkylaryl polyglycol ether To produce a suitable preparation of active compound, 1 part by weight of active compound is mixed with the stated amounts of solvent and emulsifier, and the concentrate is diluted with water to the desired concentration. To test for preventive activity, young plants are sprayed with the preparation of active compound at the stated rate of application. One day after this treatment, the plants are inoculated with an aqueous spore suspension of Pyrenophora teres. The plants remain for 48 hours in an incubation cabinet at 22° C. and a relative atmospheric humidity of 100%. Then the plants are placed in a greenhouse at a temperature of approximately 20° C. and a relative atmospheric humidity of approximately 80%. The test is evaluated 7-9 days after the inoculation. 0% means an efficacy which corresponds to that of the untreated control while an efficacy of 100% means that no disease is observed.

A further data set deals with Alternaria solani. In words: In vivo preventive test on Alternaria solani (tomato). Particulars: evaluated 7 days after inoculation. The method, then: In Vivo Preventive Test on Alternaria solani (Tomato) • Solvent: 49 parts by weight of N,N-dimethylformamide • Emulsifier: 1 part by weight of alkylarylpolyglycolether To produce a suitable preparation of active compound, 1 part by weight of active compound is mixed with the stated amounts of solvent and emulsifier, and the concentrate is diluted with water to the desired concentration. To test for preventive activity, young plants are sprayed with the preparation of active compound at the stated rate of application. One day after this treatment, the plants are inoculated with an aqueous spore suspension of Alternaria solani. The plants remain for one day in an incubation cabinet at approximately 22° C. and a relative atmospheric humidity of 100%. Then the plants are placed in an incubation cabinet at approximately 20° C. and a relative atmospheric humidity of 96%. The test is evaluated 7 days after the inoculation. 0% means an efficacy which corresponds to that of the untreated control while an efficacy of 100% means that no disease is observed.

Results on 24 molecules are retold here after patent US9357778B2, “N-acyl-2-(cyclo)alkypyrrolidines and piperidines useful as fungicides” (BAYER CROPSCIENCE AG, priority 2012, dated 2016).

Each structure is given as a SMILES string.

The logP is the decadic logarithm of the partition coefficient of the neutral form, usually between octanol and water. For the molecule `Cn1nc(C(F)F)c(C(=O)N2CCCC2C(F)(F)F)c1Cl` (stereo not drawn) [Example 1], in data set [1], the logP amounted to 2.39. Further, the Efficacy in the data set with Pyrenophora teres is listed as 100%.

In data set [1], `Cn1nc(C(F)F)c(C(=O)N2CCCC2C(F)(F)F)c1F` (stereo not drawn) [Example 2] displayed a lipophilicity (logP) of 2.25. The molecule further had an Efficacy in the data set with Pyrenophora teres of 100%.

With `CCCCCCC1CCCN1C(=O)c1cn(C)nc1C(F)F` (stereo not drawn) [Example 6], in data set [1], the lipophilicity (logP) is reported as 3.37. In addition, the Efficacy in the data set on Alternaria solani (500 ppm of active ingredient) was 94%; in the data set on Pyrenophora teres it was 95%.

`CCCCCCC1CCCN1C(=O)c1c(C(F)F)nn(C)c1Cl` (stereo not drawn) [Example 7]: the lipophilicity (logP) in data set [1] was found to be 3.94. Besides, the Efficacy turned out to be 94% with Alternaria solani (500 ppm of active ingredient) and 100% in the data set on Pyrenophora teres.

Molecule `Cn1cc(C(=O)N2CCCC2C23CC4CC(CC(C4)C2)C3)c(C(F)F)n1` (stereo not drawn) [Example 12] returned a lipophilicity (logP) in data set [1] of 3.89. The figures for the Efficacy in the data set on Alternaria solani (100 ppm of active ingredient), in the data set on Alternaria solani (500 ppm of active ingredient) and in the data set on Pyrenophora teres were 89%, 94% and 100%, respectively.

In data set [1], `Cn1nc(C(F)F)c(C(=O)N2CCCC2C23CC4CC(CC(C4)C2)C3)c1Cl` (stereo not drawn) [Example 13] gave a logP of 4.67. Further, the results for the Efficacy with Alternaria solani (500 ppm of active ingredient) and in the data set with Pyrenophora teres were 94% and 100%, respectively.

`Cn1nc(C(F)F)c(C(=O)N2CCCCC2C(F)(F)F)c1Cl` (stereo not drawn) [Example 18] registered a logP in data set [1] of 2.80. For the same molecule, the Efficacy in the data set with Pyrenophora teres is 89%.

In data set [1], `Cn1nc(C(F)F)c(C(=O)N2CCCCC2C(F)(F)F)c1F` (stereo not drawn) [Example 19] had a log partition coefficient (logP) of 2.63. In the data set with Pyrenophora teres, this molecule had an Efficacy of 94%.

On to `CCCCCCC1CCCCN1C(=O)c1cn(C)nc1C(F)F` (stereo not drawn) [Example 20], for which the logP in data set [1] turned out to be 3.71. Moreover, the Efficacy in the data set on Alternaria solani (100 ppm of active ingredient) was determined as 94%; with Alternaria solani (500 ppm of active ingredient) it was 100%; with Pyrenophora teres it was 100%.

As for `CCCCCCC1CCCCN1C(=O)c1c(C(F)F)nn(C)c1Cl` (stereo not drawn) [Example 21], the logP in data set [1] was 4.39. Moreover, the Efficacy in the data set with Alternaria solani (500 ppm of active ingredient) and in the data set on Pyrenophora teres was 100% each time.

In the case of `CCCCCCC1CCCCN1C(=O)c1c(C(F)F)nn(C)c1F` (stereo not drawn) [Example 22], in data set [1], the logP worked out at 4.18. The Efficacy in the data set on Alternaria solani (500 ppm of active ingredient) and in the data set with Pyrenophora teres was 100% each time.

In the case of `Cn1nc(C(F)F)c(C(=O)N2CCCCC2C2CCCCC2)c1Cl` (stereo not drawn) [Example 23], the logP in data set [1] is given as 3.85. Moreover, the Efficacy in the data set with Alternaria solani (500 ppm of active ingredient) was 88%; in the data set on Pyrenophora teres, 100%.

As to `CCCOCCC1CCCCN1C(=O)c1cn(C)nc1C(F)F` (stereo not drawn) [Example 27], the logP in data set [1] came to 2.39.

Regarding `CCCOCCC1CCCCN1C(=O)c1c(C(F)F)nn(C)c1Cl` (stereo not drawn) [Example 28], the logP in data set [1] was 2.90.

Molecule `Cn1cc(C(=O)N2CCCCC2CCOCC2CC2)c(C(F)F)n1` (stereo not drawn) [Example 33] yielded a logP in data set [1] of 2.32. This molecule returned an Efficacy with Pyrenophora teres of 94%.

In data set [1], `Cn1nc(C(F)F)c(C(=O)N2CCCCC2CCOCC2CC2)c1Cl` (stereo not drawn) [Example 34] registered a logP of 2.82. Besides, in the data set with Pyrenophora teres, the Efficacy is listed as 94%.

In data set [1], `Cn1cc(C(=O)N2CCCCC2CCOCC2CCC2)c(C(F)F)n1` (stereo not drawn) [Example 38] registered a logP of 2.92. Also, in the data set on Pyrenophora teres, the Efficacy was found to be 89%.

With `COCCCOCCC1CCCCN1C(=O)c1c(C(F)F)nn(C)c1Cl` (stereo not drawn) [Example 39], the logP in data set [1] is 2.39.

Consider `COCCCOCCC1CCCCN1C(=O)c1cn(C)nc1C(F)F` (stereo not drawn) [Example 41], for which the logP in data set [1] was found to be 1.96. The Efficacy in the data set with Pyrenophora teres is listed as 70%.

In data set [1], `Cn1nc(C(F)F)c(C(=O)N2CCCCC2CCOCCC2CCCCC2)c1Cl` (stereo not drawn) [Example 43] came in with a logP of 4.87. Further, the Efficacy in the data set with Pyrenophora teres came to 90%.

Regarding `COCCCC1CCCCN1C(=O)c1cn(C)nc1C(F)F` (stereo not drawn) [Example 45], the logP in data set [1] was 1.88.

The molecule `COCCCC1CCCCN1C(=O)c1c(C(F)F)nn(C)c1Cl` (stereo not drawn) [Example 46] came in with a lipophilicity (logP) in data set [1] of 2.33.

Take `Cn1nc(C(F)F)c(C(=S)N2CCCC2CC2CCCCC2)c1F` (stereo not drawn) [Example 51]: the lipophilicity (logP) in data set [1] is reported as 3.96.

Regarding `Cn1nc(C(F)F)c(C(=S)N2CCCC2C23CC4CC(CC(C4)C2)C3)c1F` (stereo not drawn) [Example 52], in data set [1], the logP is on record as 4.51.
